Structures can show the parent of a compound that is named as a salt.
How the values were obtained:
Botrytis cinerea [1] = test: In vitro volatile inhibition assay, 12-well plate, half-strength PDA; assay type: cell-based; conditions: B. cinerea, 3 d at 23° C.; for percent growth relative to control: volatile
Description: (§1) A 12-well microtiter plate (6.5 milliliter (mL) volume per well) is used for the in vitro inhibition assay for volatile antimicrobial compound of Sample 1 (see Example 1) against two plant fungal pathogens. A 3-mL volume of half-strength Potato Dextrose Agar (PDA) is added to each well. After cooling, 1 microliter (μL) of 1×10^5 spores per mL of Botrytis cinerea (B. cinerea) or Penicillium expansum (P. expansum) suspension is spotted to the center of the agar. A Whatman #1 filter disk (Cat. No. 1001-0155) is placed, in duplicate, on the underside of a polyethylene polymerase chain reaction (PCR) plate sealing film.
(§2) For determination of the minimum inhibitory concentration (MIC), the test compound is diluted in acetone, and the appropriate amount of compound added to disks in a dose dependent manner to achieve a final headspace concentration of 35.7 to 0.03 milligrams per liter (mg/L). The acetone is permitted to evaporate for 5 min. The headspace around the inoculum is then sealed inside the well by the film with the adhering disk containing the fungicide. The plates are inverted, placed over the treated disks and sealed to prevent any of the chemical from flaking from the disk and falling onto the inoculated agar. After 3 days (d) of storage at 23° C., cultures are evaluated for percent growth relative to control. Results are summarized in Table 1 showing the ability of benzoxaborole compound of Sample 1 to control the growth of two fungal plant pathogens through volatile activity.

Penicillium expansum [2] = test: as above; assay type: cell-based; conditions: P. expansum, 3 d at 23° C.; for percent growth relative to control: volatile
Description: as §1, §2

Botrytis cinerea [3] = test: In vivo volatile bioassay on inoculated fruit (strawberry, grape, blueberry); conditions: B. cinerea, 10 mg/L headspace, sublimed, 3 day treatment plus additional 3 days at 21° C.
Description: (§3) To assess the in vivo activity of volatile antimicrobial compound of Sample 1 (see Example 1) in fruit, a volatile bioassay is developed using apple, pear, orange, strawberry, grape and blueberry. Two apples, two oranges, two pears, eight strawberries, sixteen grapes or thirty blueberries (per rep, in duplicate) are placed in a clamshell with the stem end facing up for all fruits except for strawberry (stem end facing downwards). A fresh wound is inoculated with 20 μL 1×10^6 per mL Penicillium expansum (P. expansum) spore suspension (apple and pear), 20 μL×1×10^6 per mL Penicillium digitatum (P. digitatum) spore suspension (orange), and 20 μL×1×10^6 (strawberry and grape) or 10 μL (blueberry) of 1×10^5 per mL Botrytis cinerea (B. cinerea) spore suspension. The clamshells are placed inside a 117 L Rubbermaid storage box (Cat #2244), and the lids closed.
(§4) Sample 1, prepared according to Example 1 and dissolved in acetone, is pipetted onto a cotton strip, where the acetone is allowed to evaporate for 5 min, and then introduced into the container by a sublimation device (copper tube heated to 200° C. with fan flow at 0.5 liters per minute (L/min)) to achieve a final headspace concentration of 10 mg/L). The containers are then held for 3 d at 21° C. After treatment, the fruits are held for an additional 3 d at 21° C., then evaluated for disease incidence (millimeter (mm) diameter of browning or water-soaked lesions) and pathogen sporulation (mm diameter) for apple, pear and orange, as well as Botrytis cinerea disease incidence (%) and severity (0 to 4) for strawberry, grape and blueberry. Results are summarized in Table 2 showing good in vivo antimicrobial control of three fungal pathogens on six different hosts when applied as a volatile fungicide. Results are also depicted in FIG. 1.

Penicillium expansum [4] = test: In vivo volatile bioassay on inoculated fruit (apple, pear); conditions: P. expansum, 10 mg/L headspace, sublimed, 3 day treatment plus additional 3 days at 21° C.
Description: as §3, §4

Penicillium digitatum = test: In vivo volatile bioassay on inoculated fruit (orange); conditions: P. digitatum, 10 mg/L headspace, sublimed, 3 day treatment plus additional 3 days at 21° C.
Text: To assess the in vivo activity of volatile antimicrobial compound of Sample 1 (see Example 1) in fruit, a volatile bioassay is developed using apple, pear, orange, strawberry, grape and blueberry. Two apples, two oranges, two pears, eight strawberries, sixteen grapes or thirty blueberries (per rep, in duplicate) are placed in a clamshell with the stem end facing up for all fruits except for strawberry (stem end facing downwards). […]
as §4, with “The containers are then held for 3 d at 21° C.” left out, “Results are summarized in Table 2 showing good in vivo antimicrobial control of three fungal pathogens on six different hosts when applied as a volatile fungicide. Results are also depicted in FIG. 1.” left out

[5] = headspace concentration 0.03 mg/L
[6] = headspace concentration 0.07 mg/L
[7] = headspace concentration 0.1 mg/L
[8] = headspace concentration 0.3 mg/L
[9] = headspace concentration 0.6 mg/L
[10] = headspace concentration 1.1 mg/L
[11] = headspace concentration 2.2 mg/L
[12] = headspace concentration 4.5 mg/L
[13] = headspace concentration 8.9 mg/L
[14] = headspace concentration 17.9 mg/L
[15] = headspace concentration 35.7 mg/L
[16] = Botrytis cinerea, 72 h, applied as a volatile fungicide, headspace concentration
[17] = Penicillium expansum, 72 h, applied as a volatile fungicide, headspace concentration

Fc1ccc2c(c1)CO[B-]2(F)F [Sample 1, potassium 1,1,5-trifluoro-1,3-dihydro-2,1-benzoxaborolate salt]
percent growth relative to control (Botrytis cinerea [1]; [5]): 0% | percent growth relative to control (Botrytis cinerea [1]; [6]): 0% | percent growth relative to control (Botrytis cinerea [1]; [7]): 0% | percent growth relative to control (Botrytis cinerea [1]; [8]): 0% | percent growth relative to control (Botrytis cinerea [1]; [9]): 64.8% | percent growth relative to control (Botrytis cinerea [1]; [10]): 100% | percent growth relative to control (Botrytis cinerea [1]; [11]): 100% | percent growth relative to control (Botrytis cinerea [1]; [12]): 100% | percent growth relative to control (Botrytis cinerea [1]; [13]): 100% | percent growth relative to control (Botrytis cinerea [1]; [14]): 100% | percent growth relative to control (Botrytis cinerea [1]; [15]): 100% | EC50 (Botrytis cinerea [1]; [16]): 0.5 µg/mL | MIC (Botrytis cinerea [1]; [16]): 1.1 µg/mL | percent growth relative to control (Penicillium expansum [2]; [5]): −2.7% | percent growth relative to control (Penicillium expansum [2]; [6]): −1.9% | percent growth relative to control (Penicillium expansum [2]; [7]): −3.3% | percent growth relative to control (Penicillium expansum [2]; [8]): −8.2% | percent growth relative to control (Penicillium expansum [2]; [9]): 12.9% | percent growth relative to control (Penicillium expansum [2]; [10]): 56.2% | percent growth relative to control (Penicillium expansum [2]; [11]): 73% | percent growth relative to control (Penicillium expansum [2]; [12]): 100% | percent growth relative to control (Penicillium expansum [2]; [13]): 100% | percent growth relative to control (Penicillium expansum [2]; [14]): 100% | percent growth relative to control (Penicillium expansum [2]; [15]): 100% | EC50 (Penicillium expansum [2]; [17]): 1.2 µg/mL | MIC (Penicillium expansum [2]; [17]): 4.5 µg/mL | Incidence (%) (Botrytis cinerea [3]; Blueberry): 5.0% | Severity (0-4) (Botrytis cinerea [3]; Blueberry): 0.06 | Incidence (%) (Botrytis cinerea [3]; Grape): 23.3% | Severity (0-4) (Botrytis cinerea [3]; Grape): 0.12 | Incidence (%) (Botrytis cinerea [3]; Strawberry): 6.3% | Severity (0-4) (Botrytis cinerea [3]; Strawberry): 0.03 | Browning (mm) (Penicillium expansum [4]; Apple): 4.8 mm | Sporulation (mm) (Penicillium expansum [4]; Apple): 7.3 mm | Browning (mm) (Penicillium expansum [4]; Pear): 5.3 mm | Sporulation (mm) (Penicillium expansum [4]; Pear): 4.3 mm | Sporulation (mm) (Penicillium digitatum): 0.0 mm | Water soaked lesion (mm) (Penicillium digitatum): 12.7 mm

Reference: patent publication US10159252B2, “Fungicidal compounds and compositions” (AgroFresh Inc., priority 2015, dated 2018)
